According to patent US20120064556A1, “LIPOPROTEIN LIPASE ASSAY” (THE RESEARCH FOUNDATION OF STATE UNIVERSTIY OF NEW YORK, priority 2010, published 2012):
Blank lines part the entries; values can stand above or below the molecule they belong to.

What was measured:
lipoprotein lipase (LPL) = test: EnzChek substrate fluorescence assay of LPL activity; type: biochemical; conditions: for increase of LPL activity: over the concentration ranges tested (FIGS. 5A and 5B)
Description: In FIG. 1, background substrate hydrolysis was deducted from each measurement, initial rate was plotted against substrate concentration and each data point is the mean of triplicate determinations.
The effects of components that may be present in biological LPL samples and affect the assay were also evaluated and illustrated in FIG. 5. Addition of heparin and calcium increased LPL activity by about 6% over the concentration ranges tested, shown in FIGS. 5A and 5B, while HIS, added from 0-10% decreased the activity by about 12%, shown in FIG. 5C. Addition of NaCl increased the reaction rate, shown in FIG. 5D, with the highest rate, 46% higher than that without salt, occurring at 0.15 M. As NaCl was increased further, the reaction rate dropped, but even at 2.5 M was not reduced to that without NaCl. This implies that there is no inhibition of LPL activity by NaCl if apoC-II is not used in the assay.
The SpectraMax® M2 plate reader and SoftMax® Pro 5 from MDS Analytical Technologies were used for fluorescent measurements. The optimal wavelength was determined to be […] with a 495 nm filter cutoff. The linear capacity of these instruments is up to 2.4 μmol/well. An assay was performed in a black 96-well plate from Costar® in the presence of 0.15 M NaCl, 20 mM Tris-HCl, and 0.0125% Zwittergent® and 1.5% fatty acid free BSA. A 4× working solution was freshly prepared with 0.6 M NaCl, 80 mM Tris-HCl and 6% fatty acid free BSA. The background hydrolysis rate of the substrate was about 1 pmol/min. In the typical assay, the amount of substrate hydrolyzed was less than about 5% of the available substrate.
Enzymatic parameters were calculated using unquenched the BODIPY-C12 probe, the reaction rate in pmol/min was calculated. The rate of hydrolysis as determined from the continuous increase in fluorescence intensity is equal to the rate of separation of the quencher fatty acid from the substrate. Enzymatic parameters such as Vmax, Km, Kcat, detection limit, Z factors and correlation coefficient were calculated based on the standard definition of those parameters. The data is presented as mean plus standard deviation of three replicates and described below in Example 2 for a comparison of the inventive method and a traditional assay.

[1] = solubility and shelf life of substrate in the assay buffer; type: physicochemical
human LPL [2] = molecular target: T1, human LPL (Homo sapiens, UniProt P06858); test: EnzChek assay of human LPL activity in conditioned media; type: biochemical; conditions: 25 μL conditioned medium mixed with 25 μL human LPL medium, 30 minutes on ice, 0.62 μM EnzChek substrate, p<0.05 (FIG. 6A)
T1 construct: made in house; host or cells: HEK293 (conditioned medium, not purified)
T1 sequence (P06858 28-475): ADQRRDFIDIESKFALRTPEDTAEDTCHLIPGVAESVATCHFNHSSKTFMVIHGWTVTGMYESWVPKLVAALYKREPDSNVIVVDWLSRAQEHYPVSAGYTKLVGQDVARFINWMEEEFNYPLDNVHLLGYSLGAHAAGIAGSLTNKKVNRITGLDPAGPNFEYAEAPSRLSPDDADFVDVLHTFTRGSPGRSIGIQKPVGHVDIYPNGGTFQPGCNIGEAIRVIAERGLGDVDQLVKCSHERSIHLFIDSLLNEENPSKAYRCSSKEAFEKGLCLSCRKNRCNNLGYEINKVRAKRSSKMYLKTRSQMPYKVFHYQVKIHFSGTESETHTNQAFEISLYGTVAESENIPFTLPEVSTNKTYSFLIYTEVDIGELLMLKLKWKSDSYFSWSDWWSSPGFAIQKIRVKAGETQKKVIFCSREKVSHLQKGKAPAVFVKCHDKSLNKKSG
Description: Conditioned media was generated by transfection in HEK293 cells as is known. Medium obtained from cells expressing from an empty vector was included as a control for the LPL assay. No lipase activity was detected in the control medium. Pre and post-heparin mouse serum was obtained from blood drawn 5 minutes after the injection of 10 units heparin per kg body weight of the mouse.
To determine whether the conditions of the assay are such that the two forms of the enzyme are maintained and can be differentiated by the biological activity of the lipase, two conditioned media were generated containing human LPL and ANGPTL4 respectively.
(§1) Background substrate hydrolysis was deducted from each measurement. LPL activity is expressed as a percentage of the activity measured in the absence of ANGPTL4. The values are the mean +/− standard deviation in triplicate repeats, p<0.05.

human LPL [3] = molecular target: T1, human LPL; test: radiolabeled triolein assay of human LPL activity in conditioned media; type: biochemical; conditions: same samples, radiolabeled triolein assay (FIG. 6B)
Excerpt: as §1

Molecule: [Cl-].[Na+] [NaCl]
reaction rate higher than that without salt (lipoprotein lipase (LPL); highest rate, at 0.15 M (FIG. 5D)): 46%
inhibition of LPL activity (lipoprotein lipase (LPL); up to 2.5 M, apoC-II not used in the assay): no inhibition

Molecule: CCCCCCCCCCCCOCC(COC(=O)CCCC(=O)Oc1ccc2nc3ccc(=O)cc-3oc2c1C)OCCCCCCCCCCCC (racemic) [DGGR substrate, 1,2-o-dilauryl-rac-glycero-3-glutaric acid-(6′-methylresorufin) ester]
shelf life / precipitation in the assay buffer [1]: precipitated after only one week
solubility in the assay buffer [1]: limited solubility

Molecule: [Ca+2] [calcium]
increase of LPL activity (lipoprotein lipase (LPL)): about 6%

increase of LPL activity (lipoprotein lipase (LPL)): about 6%
Molecule: heparin [reference compound]

effect on LPL activity (human LPL [2]): inhibited the LPL activity
effect on LPL activity (human LPL [3]): comparable result
B1: ANGPTL4 conditioned media: conditioned medium from transfected HEK293 cells containing ANGPTL4, an endogenous inhibitor of LPL (protein, UniProt Q9BY76 26-406, looked up)
Angiopoietin-related protein 4: GPVQSKSPRFASWDEMNVLAHGLLQLGQGLREHAERTRSQLSALERRLSACGSACQGTEGSTDLPLAPESRVDPEVLHSLQTQLKAQNSRIQQLFHKVAQQQRHLEKQHLRIQHLQSQFGLLDHKHLDHEVAKPARRKRLPEMAQPVDPAHNVSRLHRLPRDCQELFQVGERQSGLFEIQPQGSPPFLVNCKMTSDGGWTVIQRRHDGSVDFNRPWEAYKAGFGDPHGEFWLGLEKVHSITGDRNSRLAVQLRDWDGNAELLQFSVHLGGEDTAYSLQLTAPVAGQLGATTVPPSGLSVPFSTWDQDHDLRRDKNCAKSLSGGWWFGTCSHSNLNGQYFRSIPQQRQKLKKGIFWKTWRGRYYPLQATTMLIQPMAAEAAS
modifications: in conditioned medium of transfected HEK293 cells
